Data as given in patent US6737383B1, “Herbicidal oxadiazolidines” (priority 1999, dated 2004).

Experiments:
sugar beet = assay: Test B pre/postemergence sugar beet; assay type: in vivo, Beta vulgaris
Outline: (§1)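 Herbicidal effect was estimated by eye on a ten-point control scale after plants spent twelve to sixteen days in a greenhouse following soil or foliar treatment. Foliar sprays targeted plants at one to four leaves; all doses were formulated in a non-phytotoxic solvent with surfactant.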

soybean = assay: Test B pre/postemergence soybean; assay type: in vivo, Glycine max
Outline: as §1

crabgrass = assay: Test B pre/postemergence crabgrass; assay type: in vivo, Digitaria sanguinalis
Outline: as §1

giant foxtail = assay: Test B pre/postemergence giant foxtail; assay type: in vivo, Setaria faberii
Outline: as §1

[1] = Postemergence, Rate 250 g/ha, scale 0 to 10, 0 is no effect, 10 is complete control
[2] = Postemergence, Rate 500 g/ha, scale of 0 to 10 where 0 is no effect and 10 is complete control
[3] = Preemergence, Rate 62 g/ha, scale 0 to 10 (0 no effect, 10 complete control)
[4] = Preemergence, Rate 125 g/ha, scale of 0 to 10 where 0 is no effect and 10 is complete control
[5] = Preemergence, Rate 250 g/ha, scale 0 to 10, 0 is no effect, 10 is complete control
[6] = Preemergence, Rate 500 g/ha, scale 0 to 10, 0 is no effect, 10 is complete control
[7] = Postemergence, Rate 125 g/ha, scale 0 to 10, 0 is no effect, 10 is complete control
[8] = Rate 62 g/ha, Postemergence, scale of 0 to 10 where 0 is no effect and 10 is complete control
[9] = Postemergence, Rate 250 g/ha, scale 0 to 10
[10] = Rate 62 g/ha, Postemergence, scale 0 to 10 (0 no effect, 10 complete control)
[11] = Rate 125 g/ha, Postemergence, scale 0 to 10, 0 is no effect, 10 is complete control
[12] = Preemergence, Rate 62 g/ha, scale of 0 to 10 where 0 is no effect and 10 is complete control
[13] = Postemergence, Rate 1000 g/ha, scale 0 to 10 (0 no effect, 10 complete control)
[14] = Rate 1000 g/ha, Preemergence, scale 0 to 10 (0 no effect, 10 complete control)

SMILES	Sugarbeets plant response rating (sugar beet; [2])	Plant response rating, Sugarbeets (sugar beet; [4])	Sugarbeets plant response rating (sugar beet; [5])	Sugarbeets plant response rating (sugar beet; [6])	Soybean plant response rating (soybean; [2])	Plant response rating, Soybean (soybean; [4])	Soybean plant response rating (soybean; [5])	Soybean plant response rating (soybean; [6])	Crabgrass plant response rating (crabgrass; [2])	Plant response rating, Crabgrass (crabgrass; [4])	Crabgrass plant response rating (crabgrass; [5])	Crabgrass plant response rating (crabgrass; [6])	Giant foxtail plant response rating (giant foxtail; [2])	Plant response rating, Giant foxtail (giant foxtail; [4])	Giant foxtail plant response rating (giant foxtail; [5])	Giant foxtail plant response rating (giant foxtail; [6])	Sugarbeets plant response rating (sugar beet; [9])	Sugarbeets plant response rating (sugar beet; [11])	Soybean plant response rating (soybean; [9])	Soybean plant response rating (soybean; [11])	other results
CC(C)N(C(=O)n1oc(=O)n(CC2(C)COC2)c1=O)c1ccccc1 [Compound 420]	0	0	2	3	4	0	0	0	8	9	9	10	9	9	10	10					Plant response rating, Sugarbeets (sugar beet; [1]): 0; Plant response rating, Sugarbeets (sugar beet; [3]): 0; Plant response rating, Soybean (soybean; [1]): 3; Plant response rating, Soybean (soybean; [3]): 0; Plant response rating, Crabgrass (crabgrass; [7]): 2; Plant response rating, Crabgrass (crabgrass; [1]): 8; Plant response rating, Crabgrass (crabgrass; [3]): 7; Crabgrass plant response rating (crabgrass; [8]): 2; Plant response rating, Giant foxtail (giant foxtail; [7]): 8; Plant response rating, Giant foxtail (giant foxtail; [1]): 8; Plant response rating, Giant foxtail (giant foxtail; [3]): 5; Giant foxtail plant response rating (giant foxtail; [8]): 7
CC(C)N(C(=O)n1oc(=O)n(C(C)C#N)c1=O)c1ccccc1 (centres unmarked) [Compound 435]	0	0	0	1	3	0	0	0	8	2	6	9	9	2	3	9	0	0	1	1	Plant response rating, Sugarbeets (sugar beet; [3]): 0; Sugarbeets plant response rating (sugar beet; [10]): 0; Plant response rating, Soybean (soybean; [3]): 0; Soybean plant response rating (soybean; [10]): 0; Crabgrass plant response rating (crabgrass; [9]): 7; Crabgrass plant response rating (crabgrass; [10]): 0; Crabgrass plant response rating (crabgrass; [11]): 2; Giant foxtail plant response rating (giant foxtail; [9]): 8; Plant response rating, Giant foxtail (giant foxtail; [3]): 0; Giant foxtail plant response rating (giant foxtail; [10]): 0; Giant foxtail plant response rating (giant foxtail; [11]): 3
CC(C)N(C(=O)n1oc(=O)n(CCC#N)c1=O)c1ccc(Cl)cc1 [Compound 444]	3	0	0	0	2	0	2	3	9	5	9	10	9	9	10	10	0	0	2	1	Plant response rating, Sugarbeets (sugar beet; [12]): 0; Sugarbeets plant response rating (sugar beet; [10]): 0; Plant response rating, Soybean (soybean; [12]): 0; Soybean plant response rating (soybean; [10]): 1; Crabgrass plant response rating (crabgrass; [9]): 9; Plant response rating, Crabgrass (crabgrass; [12]): 4; Crabgrass plant response rating (crabgrass; [10]): 2; Crabgrass plant response rating (crabgrass; [11]): 2; Giant foxtail plant response rating (giant foxtail; [9]): 8; Plant response rating, Giant foxtail (giant foxtail; [12]): 9; Giant foxtail plant response rating (giant foxtail; [10]): 4; Giant foxtail plant response rating (giant foxtail; [11]): 7
CCOP(=O)(Cn1c(=O)on(C(=O)N(c2ccccc2)C(C)C)c1=O)OCC [Compound 447]	0	0	0	0	4	0	0	0	0	3	8	9	0	3	7	8	0	0	2	1	Sugarbeets plant response rating (sugar beet; [13]): 0; Plant response rating, Sugarbeets (sugar beet; [14]): 0; Soybean plant response rating (soybean; [13]): 6; Crabgrass plant response rating (crabgrass; [9]): 0; Crabgrass plant response rating (crabgrass; [13]): 0; Crabgrass plant response rating (crabgrass; [11]): 0; Plant response rating, Crabgrass (crabgrass; [14]): 9; Giant foxtail plant response rating (giant foxtail; [9]): 0; Giant foxtail plant response rating (giant foxtail; [13]): 0; Giant foxtail plant response rating (giant foxtail; [11]): 0; Plant response rating, Giant foxtail (giant foxtail; [14]): 10
